Here are results for four compounds from patent US9540381B2, “Anti-angiogenesis compound, intermediate and use thereof” (Guangzhou KangRui Biological Pharmaceutical Technology Co., …, priority 2013, dated 2017).

The test system of assay [1] is vessel development of the FLK1-GFP transgenic danio rerio. Description: Inhibition test on vascular development of Danio rerio. It counts as in vivo. Conditions: for inhibition at 0.1 µM / inhibition at 1 µM / inhibition at 5 µM / inhibition at 10 µM / inhibition at 20 µM / inhibition at 40 µM / inhibition at 100 µM: Danio rerio, after 24 hours, n = 5, read-out: inhibition rate on the development of vertebral vessel; for inhibition at 0.1 µM: 100 nM; for inhibition effect on the vessel development of the danio rerio (in words): Table 1 and FIG. 7. On the procedure: Female fish can spawn 200-300 […], and the fertilization and embryonic development processes are conducted in vitro. They can grow up within 24 hours, and the embryo is transparent, which is suitable for observing the change of intracorporal organs and tissues. These characteristics make the danio rerio become to be one of the five fish laboratory animals accepted by the international organization for standardization. Currently, the danio rerio is widely used in human disease studies, especially used in cardiovascular system studies. The danio rerio can be used for screening the influence of small molecular compounds on angiogenesis. Experimental Method: This experiment uses FLK1-GFP transgenic danio rerio as an animal model which is generally used for screening the influence of compounds on angiogenesis. Vessel can be in vivo observed under fluorescence microscope (Suk-Won Jin, 2005, Development). The selected embryo of the postnatal FLK1-GFP transgenic danio rerio was placed into a culture dish and incubated for 3-5 days in an incubator at 28° C. […] Examine the developmental condition of the vertebral vessel after 24 hours and take photo by use of the fluorescence microscope.

Another assay concerns the target T1, VEGFR2 (Homo sapiens, UniProt P35968).
T1 construct: endogenous in cells; host or cells: primary HUVECs P3-P5
Briefly: In vitro inhibition test on VEGFR2 in HUVECs (anti-phosphorylated VEGFR2 blot). It counts as cell-based. As to conditions: 10 nM, 100 nM and 1 μM, 50 ng/ml VEGF. Here is the method: The experimental method of detecting the inhibition of the compounds of the present invention on VEGFR2 kinase is as follows:
1) The primary cultured human umbilical vein endothelial cells (HUVECs) P3-P5 were transferred to 6 well plate, 2×10^5 cells per well;
2) compounds 2-1, 2-2 and 2-4 of the present invention (the concentrations are 10 nM, 100 nM and 1 μM for each compound) were added when the cells grow to 70-80%, VEGF was a control, incubation for 30 min;
3) 50 ng/ml VEGF (cell Signaling company, US) was added, stimulating for 10 min;
4) nondenature lysis buffer was added to terminate the reaction, and cell lysis buffer was collected to carry out protein quantification;
5) SDS-PAGE electrophoresis, transfer to nitrocellulose membrane, the membrane was cut off and sealed in phosphate tween buffer, TTBS buffer (Tris-buffered saline 0.01% Tween 20, cell Signaling company, US, PH8.0) formulated from 5% skimmed milk for 2 hours; 6) wash the membrane, seal at 4° C. overnight by use of an anti-phosphorylated VEGFR2 antibody (1:1000 dilution, cell Signaling company, US); 7) on the second day after washing membrane, horse radish peroxidase marked goat anti-rabbit second antibody (cell Signaling company, US) was incubated with the membrane at room temperature for 1 hour; 8) develop with chemiluminescence kit (Millipore company) after washing membrane, and take photos.

Each structure is given as a SMILES string.

T1 sequence (P35968 20-1356): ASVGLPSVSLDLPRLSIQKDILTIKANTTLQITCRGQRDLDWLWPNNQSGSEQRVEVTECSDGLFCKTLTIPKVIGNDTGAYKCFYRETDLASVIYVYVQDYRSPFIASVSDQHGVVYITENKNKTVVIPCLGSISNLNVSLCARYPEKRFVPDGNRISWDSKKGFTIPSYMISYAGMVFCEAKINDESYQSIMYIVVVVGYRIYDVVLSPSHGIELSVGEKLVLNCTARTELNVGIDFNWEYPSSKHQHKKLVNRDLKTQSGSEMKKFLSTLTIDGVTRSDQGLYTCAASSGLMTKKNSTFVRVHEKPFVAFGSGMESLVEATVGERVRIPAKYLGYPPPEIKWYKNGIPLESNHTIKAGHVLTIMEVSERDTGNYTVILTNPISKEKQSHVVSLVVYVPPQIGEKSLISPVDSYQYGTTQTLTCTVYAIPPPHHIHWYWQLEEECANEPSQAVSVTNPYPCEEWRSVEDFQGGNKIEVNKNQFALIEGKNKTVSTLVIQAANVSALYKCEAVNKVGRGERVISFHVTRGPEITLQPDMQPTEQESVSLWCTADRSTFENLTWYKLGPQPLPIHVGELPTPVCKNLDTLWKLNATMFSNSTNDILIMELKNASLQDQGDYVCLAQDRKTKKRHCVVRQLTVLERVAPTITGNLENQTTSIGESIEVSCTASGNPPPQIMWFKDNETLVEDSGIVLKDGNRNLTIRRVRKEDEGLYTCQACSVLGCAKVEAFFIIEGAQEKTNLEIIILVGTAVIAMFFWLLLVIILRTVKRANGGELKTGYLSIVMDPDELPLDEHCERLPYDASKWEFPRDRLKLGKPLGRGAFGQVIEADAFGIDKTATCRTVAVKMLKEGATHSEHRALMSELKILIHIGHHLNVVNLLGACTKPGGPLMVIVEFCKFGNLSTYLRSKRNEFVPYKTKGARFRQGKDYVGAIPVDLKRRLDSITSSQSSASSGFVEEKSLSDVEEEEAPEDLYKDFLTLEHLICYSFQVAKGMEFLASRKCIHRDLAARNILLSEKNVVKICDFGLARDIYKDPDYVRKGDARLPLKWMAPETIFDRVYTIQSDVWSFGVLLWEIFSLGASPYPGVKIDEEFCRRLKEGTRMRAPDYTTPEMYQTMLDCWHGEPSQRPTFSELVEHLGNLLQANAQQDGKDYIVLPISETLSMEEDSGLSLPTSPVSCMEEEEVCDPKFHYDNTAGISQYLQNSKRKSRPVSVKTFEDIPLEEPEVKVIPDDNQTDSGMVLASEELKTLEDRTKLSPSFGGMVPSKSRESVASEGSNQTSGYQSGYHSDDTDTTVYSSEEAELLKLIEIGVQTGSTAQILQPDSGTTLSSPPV

As usually defined, the inhibition is the change of the read-out against control, counted positive when it falls. With `O=C(Nc1cccc(C(F)(F)F)c1)c1cccc2nc(Oc3ncnc4c3CCNC4)ccc12` [Compound 2-3], in assay [1], the inhibition at 0.1 µM came to 0%, the inhibition at 1 µM came out at 0%, the inhibition at 5 µM was 0% and the inhibition at 10 µM is 0%. Further, in assay [1], the inhibition at 20 µM was 0%, the inhibition at 40 µM stood at 5%, the inhibition at 100 µM turned out to be 20% and the “inhibition effect on the vessel development of the danio rerio (in words)” value (from here on “inhibition effect”) is “have inhibition effect on the vessel development of the danio rerio”.

As for `CNCc1cc(Oc2ccc3c(C(=O)Nc4cccc(C(F)(F)F)c4)cccc3n2)ncn1` [Compound 2-4], the “inhibition of VEGFR2 (in words, FIG. 8)” value on VEGFR2 is “can inhibit VEGFR2”. Further, in assay [1], the inhibition at 0.1 µM amounted to 0%, the inhibition at 1 µM turned out to be 0%, the inhibition at 5 µM was determined as 0% and the inhibition at 10 µM is 0%. Further, in assay [1], the inhibition at 20 µM was 5%, the inhibition at 40 µM worked out at 25%, the inhibition at 100 µM was found to be 70% and the “inhibition effect” value is listed as “have inhibition effect on the vessel development of the danio rerio”.

On to `O=C(Nc1cccc(C(F)(F)F)c1)c1cccc2nc(Oc3ncnc4c3CNC4)ccc12` [Compound 2-5], for which, in assay [1], the inhibition at 0.1 µM amounted to 0%, the inhibition at 1 µM is 0%, the inhibition at 5 µM was found to be 10% and the inhibition at 10 µM was 40%. Further, in assay [1], the inhibition at 20 µM is 80%, the inhibition at 40 µM was 100%, the inhibition at 100 µM came to 100% and the “inhibition effect” value is “have inhibition effect on the vessel development of the danio rerio”.

Regarding `Cc1ccc(Nc2nccc(N(C)c3ccc4c(C)n(C)nc4c3)n2)cc1S(N)(=O)=O` [Compound 130B, Pazopanib, reference compound], in assay [1], the inhibition at 0.1 µM is 0%, the inhibition at 1 µM is 0%, the inhibition at 5 µM was 85% and the inhibition at 10 µM amounted to 90%. In assay [1], the inhibition at 20 µM amounted to 95%, the inhibition at 40 µM was determined as 95% and the inhibition at 100 µM stood at 100%.
